Measured values from US20060040885A1, “Bioprosthetic heart valves” (Mayo Foundation for Medical Education and Research, a …, priority 1999, published 2006).

What was measured:
[1] = tested on: cultured porcine aortic valve subendothelial cells; assay: 3H thymidine incorporation assay, serotonin-induced proliferation; assay type: cell-based
Description: To examine the direct proliferative effects of serotonin, cultured porcine aortic valve subendothelial cells were treated with 1 μM, 100 nM, and 10 nM of serotonin and then tested using a ^3H thymidine incorporation assay.

rabbit aortic valves = assay: 1% cholesterol diet in rabbits, aortic valve immunostaining (PCNA, osteopontin) and cholesterol levels; assay type: in vivo, New Zealand rabbits; settings: 1% cholesterol diet for 12 weeks
Description: In another experiment, osteopontin expression was evaluated. Osteopontin is a non-collagenous bone matrix protein found to be present in the hypercholesterolemic aortic valves. New Zealand rabbits (n=8) were fed with a 1% cholesterol diet for 12 weeks. Eight control animals were fed a normal chow diet. Aortic valves were cut and foam cells were identified by immunostaining for macrophage antibody. Cell proliferation was assessed by immunostaining for proliferating nuclear antigen (PCNA), and osteopontin (OP) for calcification. Transmission electron microscopy immunogold labeling confirmed osteopontin expression.

nitric oxide synthase = assay: Nitric oxide synthase activity in aortic valve endothelial cell lysates (3H-L-arginine to L-citrulline conversion); assay type: cell-based, pigs; settings: valvular cells treated with pravastatin
Description: To assess nitric oxide synthase activity, the aortic valve endothelial cell lysates were evaluated using an NADPH disphorase reaction. Briefly, each lysate was incubated for 30 minutes in a NOS assay buffer containing ^3H-L-arginine, NADPH (100 mM), tetrahydrobiopterin (1 mM), calmodulin ([…]), and CaCl2 (25 mM). The reaction was quenched with ice cold stop buffer (2 mM EDTA, 20 mM Hepes, pH 5.5). The mixture was passed over a Dowex AG50WX-8 Na form resin and washed with one mL stop buffer. Nitric oxide synthase activity was calculated to be the amount of L-arginine converted to L-citrulline that was inhibited by 1-NAME. A scintillation counter was used to determine the amount of radioactivity.

With `CSc1ccc2c(c1)C(N1CCN(C)CC1)Cc1ccccc1S2` (centres unmarked) [methiothepin] the “effect on serotonin-induced proliferation” value ([1]; methiothepin 7 nM with serotonin) was “inhibited the serotonin-induced proliferation”.
For `CC(C)CCC[C@@H](C)[C@H]1CC[C@H]2[C@@H]3CC=C4C[C@@H](O)CC[C@]4(C)[C@H]3CC[C@]12C` [cholesterol], the “number of proliferating cells (PCNA) in aortic valves compared to controls” value (rabbit aortic valves) was “thousand-fold increase” and the “osteopontin expression in the atherosclerotic lesion of the aortic valves” value (rabbit aortic valves) was “increased osteopontin expression”.
With `NCCc1c[nH]c2ccc(O)cc12` [serotonin] the “increase in cell proliferation compared to untreated cells” value ([1]; serotonin 1 μM, 100 nM and 10 nM, p<0.001) was 33 fold.
With `CC[C@H](C)C(=O)O[C@H]1C[C@H](O)C=C2C=C[C@H](C)[C@H](CC[C@@H](O)C[C@@H](O)CC(=O)O)[C@H]21` [Pravastatin, pravastatin] the “nitric oxide synthase activity versus cells treated with serum-free media alone” value (nitric oxide synthase) was “about 100 fold”.
